Source: ChEMBL document CHEMBL3232981, “Isolation of 6-deoxytetrodotoxin from the pufferfish, Takifugu pardalis, and a comparison of the effects of the C-6 and C-11 hydroxy groups of tetrodotoxin on its activity” (J Nat Prod, 2014)

Columns and labels:
[1] = (§1) Inhibition of Nav in mouse Neuro-2a cells assessed as inhibition of ouabain and veratridine-induced cytotoxicity after 24 hrs by WST-8 assay; format: cell-based
Neuro-2a = test: as §1; format: cell-based

| Compound | EC50 [1] | inhibition (Neuro-2a) |
| --- | --- | --- |
| C[C@]1(O)[C@@H]2O[C@]3(O)O[C@H]1[C@@H](O)[C@@]1(NC(=N)N[C@H](O)[C@@H]21)[C@@H]3O | 130 nM | Dose-dependent effect |
| NC1=N[C@H](O)[C@H]2[C@H]3O[C@]4(O)O[C@@H]([C@@H](O)[C@@]2(N1)[C@@H]4O)[C@]3(O)CO [TETRODOTOXIN] | 2.1 nM | Dose-dependent effect |
| N=C1N[C@H](O)[C@H]2[C@H]3O[C@]4(O)O[C@H]([C@@H]3CO)[C@@H](O)[C@@]2(N1)[C@@H]4O | 6.5 nM | Dose-dependent effect |
| C[C@H]1[C@H]2O[C@@]3(O)O[C@@H]1[C@@H]1[C@@H](O)NC(=N)N[C@]1([C@@H]2O)[C@@H]3O | 400 nM | Dose-dependent effect |
